≈ marks a conversion by molar mass, not a printed value. Where two headings read alike, the source gives them in different places.
How the values were obtained:
Experiment in all cases: in vitro antibacterial activity, minimal inhibitory concentration
Assay type in all cases: cell-based
[1] = system: E. coli Brig; settings: for MIC: Escherichia coli
Excerpt: (§1) The compounds of the invention are new chemical compounds that are used as pharmacological agents and especially as broad spectrum antibacterial agents. They are active in vitro against strains of both gram-positive and gram-negative bacteria.
(§2) Minimal Inhibitory Concentration (μg/ml)

[2] = system: E. coli Vogel; settings: for MIC: Escherichia coli
Excerpt: as §1, §2

[3] = system: Entero. cloacae; settings: for MIC: Enterobacter cloacae
Excerpt: as §1, §2

[4] = system: Klebs. pneu.
Excerpt: as §1, §2

[5] = system: Prot. vulg.
Excerpt: as §1, §2

[6] = system: Pseudomonas #28; settings: read-out: Minimal Inhibitory Concentration
Excerpt: as §1, §2

[7] = system: Pseudomonas BRK 12-4-4; settings: Pseudomonas BRK 12-4-4, in vitro; for MIC: BRK1244
Excerpt: as §1, §2

[8] = system: Pseudomonas UI 18; settings: UI18; Pseudomonas UI 18, in vitro
Excerpt: as §1, §2

[9] = system: Serr. marces.
Excerpt: as §1, §2

[10] = system: Staph. aureus S18733; settings: for MIC: Staphylococcus aureus
Excerpt: as §1, §2

[11] = system: Staph. aureus UC-76; settings: Staph. aureus UC-76, in vitro; for MIC: Staphylococcus aureus, UC76
Excerpt: as §1, §2

[12] = system: Strep. fec.
Excerpt: as §1, §2

Structure (SMILES)	MIC [1] [µg/mL]	MIC [2] [µg/mL]	MIC [3] [µg/mL]	MIC [4] [µg/mL]	MIC [5] [µg/mL]	MIC ([6]; Pseudomonas #28, in vitro) [µg/mL]	MIC [7] [µg/mL]	MIC [8] [µg/mL]	MIC [9] [µg/mL]	MIC [10] [µg/mL]	MIC [11] [µg/mL]	MIC [12] [µg/mL]	further results
CC(=O)NC(CC(C)C)C(=O)Nc1ccc(-c2ncc(C(=O)N[C@@H](C(=O)N[C@@H]3C(=O)N4C(C(=O)O)=C(COC(C)=O)CS[C@H]34)c3ccccc3)c(O)n2)cc1 (mixture of isomers) [Example 4, N-[2-[4-(N-Acetyl-DL-leucylamino)phenyl]-4-hydroxy-5-pyrimidinylcarbonyl]-7-[D-2-amino-2-phenylacetamido]-3-acetoxymethyl-3-cephem-4-carboxylic acid]	25	6.3	25	25	25	12.5	12.5	12.5	> 50	6.3	1.6	50	
CSCCC(NC(C)=O)C(=O)Nc1ccc(-c2ncc(C(=O)N[C@@H](C(=O)N[C@@H]3C(=O)N4C(C(=O)O)=C(COC(C)=O)CS[C@H]34)c3ccccc3)c(O)n2)cc1 (mixture of isomers) [Example 5, N-[2-[4-(N-Acetyl-DL-methionylamino)phenyl]-4-hydroxy-5-pyrimidinylcarbonyl]-7-[D-2-amino-2-phenylacetamido]-3-acetoxymethyl-3-cephem-4-carboxylic acid]	25	6.3	25	12.5	25	3.1	6.3	6.3	> 50	3.1	1.6	50	
CC(=O)OCC1=C(C(=O)O)N2C(=O)[C@@H](NC(=O)[C@H](NC(=O)c3cnc(-c4ccc(NC(=O)C5CCC(=O)N5)cc4)nc3O)c3ccccc3)[C@H]2SC1 (mixture of isomers) [Example 6, N-[2-]4-((5-oxo-DL-prolyl)amino)phenyl]-4-hydroxy-5-pyrimidinylcarbonyl]-7-[D-2-amino-2-phenylacetamido]-3-acetoxymethyl-3-cephem-4-carboxylic acid]	50	12.5	50	25	50		12.5	12.5	> 50	6.3	1.6	50	MIC ([6]; Pseudomonas): 6.3 µg/mL
CC(=O)NC(C)C(=O)Nc1ccc(-c2ncc(C(=O)N[C@@H](C(=O)N[C@@H]3C(=O)N4C(C(=O)O)=C(COC(C)=O)CS[C@H]34)c3ccccc3)c(O)n2)cc1 (mixture of isomers) [Example 8, N-[2-[4-(N-Acetyl-DL-alanylamino)phenyl]-4-hydroxy-5-pyrimidinylcarbonyl]-7-[D-2-amino-2-phenylacetamido]-3-acetoxymethyl-3-cephem-4-carboxylic acid]	25	6.3	50	6.3	50	6.3	12.5	6.3	> 50	1.6	1.6	50	
CC(=O)NC(C)C(=O)Nc1ccc(-c2ncc(C(=O)N[C@@H](C(=O)N[C@@H]3C(=O)N4C(C(=O)O)=C(COC(C)=O)CS[C@H]34)c3ccc(O)cc3)c(O)n2)cc1 (mixture of isomers) [Example 9, N-[2-[4-(N-Acetyl-DL-alanylamino)phenyl]-4-hydroxy-5-pyrimidinylcarbonyl]-7-[D-2-amino-2-(4-hydroxyphenyl)acetamido]-3-acetoxymethyl-3-cephem-4-carboxylic acid]	50	12.5	50	12.5	12.5	1.6	3.1	3.1	> 50	6.3	3.1	50	
CC(=O)NCCCCC(NC(C)=O)C(=O)Nc1ccc(-c2ncc(C(=O)N[C@@H](C(=O)N[C@@H]3C(=O)N4C(C(=O)O)=C(COC(C)=O)CS[C@H]34)c3ccccc3)c(O)n2)cc1 (mixture of isomers) [Example 12, N-[2-[4-(N^α,N^ω -Diacetyl-DL-lysylamino)phenyl]-4-hydroxy-5-pyrimidinylcarbonyl]-7-[D-2-amino-2-phenylacetamido]-3-acetoxymethyl-3-cephem-4carboxylic acid]	50	6.3	25	25	50	6.3	12.5	6.3	> 50	6.3	1.6	50	
CC(=O)OCC1=C(C(=O)O)N2C(=O)[C@@H](NC(=O)[C@H](NC(=O)c3cnc(-c4ccc(NC(=O)C5CCCN5C(C)=O)cc4)nc3O)c3ccccc3)[C@H]2SC1 (mixture of isomers) [Example 13, N-[2-[4-(N-Acetyl-DL-prolylamino)phenyl]-4-hydroxy-5-pyrimidinylcarbonyl]-7-[D-2-amino-2-phenylacetamido]-3-acetoxy-methyl-3-cephem-4-carboxylic acid]	50	12.5	50	25	50	6.3	12.5	12.5	> 50	6.3	3.1	50	
CC(=O)NC(CCC(N)=O)C(=O)Nc1ccc(-c2ncc(C(=O)N[C@@H](C(=O)N[C@@H]3C(=O)N4C(C(=O)O)=C(COC(C)=O)CS[C@H]34)c3ccccc3)c(O)n2)cc1 (mixture of isomers) [Example 14, N-[2-[4-(N-Acetyl-DL-glutaminylamino)phenyl]-4-hydroxy-5-pyrimidinylcarbonyl]-7-[D-2-amino-2phenylacetamido]-3-acetoxymethyl-3-cephem-4-carboxylic acid]	25	6.3	50	12.5	25	6.3	12.5	12.5	> 50	6.3	1.6	50	
CC(=O)NC(C)C(=O)Nc1ccc(-c2ncc(C(=O)N[C@@H](C(=O)N[C@@H]3C(=O)N4C(C(=O)O)=C(COC(N)=O)CS[C@H]34)c3ccccc3)c(O)n2)cc1 (mixture of isomers) [Example 20, N-[2-[4-(N-Acetyl-DL-alanylamino)phenyl]-4-hydroxy-5-pyrimidinylcarbonyl]-7-[D-2-amino-2-phenylacetamido]-3-carbamoyloxymethyl-3-cephem-4-carboxylic acid]	50	12.5	> 50	25	25	6.3	12.5	6.3	> 50	3.1	1.6	> 50	
CC(=O)NC(CCC(N)=O)C(=O)Nc1ccc(-c2ncc(C(=O)N[C@@H](C(=O)NC3C(=O)N4C(C(=O)O)=C(CSc5nnnn5C)CSC34)c3ccccc3)c(O)n2)cc1 (mixture of isomers) [Example 23, N-[2-[4-(N-Acetyl-DL-glutaminylamino)phenyl]-4-hydroxy-5-pyrimidinylcarbonyl]-7-[D-2-amino-2-phenylacetamido]-3-[[1-methyl-1H-tetrazol-5-yl)thio]methyl]-3-cephem-4-carboxylic acid]	3.1	0.8	6.3	3.1	12.5	6.3	12.5	6.3	50	12.5	3.1	50	
CC(=O)NCC(=O)Nc1ccc(-c2ncc(C(=O)N[C@@H](C(=O)N[C@@H]3C(=O)N4C(C(=O)O)=C(COC(C)=O)CS[C@H]34)c3ccccc3)c(O)n2)cc1 [Example 7, N-[2-[4-(N-Acetylglycylamino)phenyl]-4-hydroxy-5-pyrimidinylcarbonyl]-7-[D-2-amino-2-phenylacetamido]-3-acetoxymethyl-3-cephem-4-carboxylic acid]			25 (≈ 34.8 µM)	6.3 (≈ 8.78 µM)				12.5 (≈ 17.4 µM)				50 (≈ 69.7 µM)	
CC(=O)N1C[C@H](O)C[C@H]1C(=O)Nc1ccc(-c2ncc(C(=O)N[C@@H](C(=O)NC3C(=O)N4C(C(=O)O)=C(CSc5nnnn5CC(=O)O)CS[C@H]34)c3ccccc3)c(O)n2)cc1 (stereo partly drawn) [Example 36, N-[2-[4-(N-Acetyl-L-hydroxyprolylamino)phenyl]-4-hydroxy-5-pyrimidinylcarbonyl]-7-[D-2-amino-2-phenylacetamido]-3-[[(1-carboxymethyl-1H-tetrazol-5-yl)thio]methyl]-3-cephem-4-carboxylic acid]													Minimal Inhibitory Concentration [1]: 12.5 µg/mL; Minimal Inhibitory Concentration [2]: 6.3 µg/mL; Minimal Inhibitory Concentration [3]: 12.5 µg/mL; Minimal Inhibitory Concentration [4]: 6.3 µg/mL; Minimal Inhibitory Concentration [5]: 6.3 µg/mL; Minimal Inhibitory Concentration [7]: 12.5 µg/mL; Minimal Inhibitory Concentration [9]: 50 µg/mL; Minimal Inhibitory Concentration [10]: 25 µg/mL; Minimal Inhibitory Concentration [11]: 12.5 µg/mL; Minimal Inhibitory Concentration [12]: > 50 µg/mL
